According to US20090275527A1, “SKIN AGING TREATMENT COMPRISING PAEONIFLORIN” (LG HOUSEHOLD & HEALTH CARE LTD., priority 2004, published 2009):
Marks after values point to notes of the source that are not given here.

Columns and labels:
[1] = tested on: GSH-Px (total glutathione peroxidase); assay: Guinea pig back skin application for 30 days: GSH-Px (DNTB method); assay type: in vivo; settings: 3 (w/v)% sample, Content by Equation 1 relative to blank group
Method: (§1) 10 g of stearic acid (C18H36O2), 70 mL of water and 20 mL of glycerol, each heated to 80, were mixed homogeneously. After stirring for about 1 minute, 3 (w/v)% of paeoniflorin or vitamin E (positive control group) was added. After adding 0.1 (w/v)% of methyl paraben, stirring was performed for 1 minute. 1 mL of KOH was slowly added. After considerable emulsification had proceeded, stirring was performed until the temperature reached about 50.
(§2) Guinea pigs were grouped, each group consisting of 3 males and 3 females. An area of 3×3 cm^2 was shaved from the back of each guinea pig. For each guinea pig, the left side was treated with the sample prepared above and the right side was treated as a negative control group and a positive control group. Application was performed at 8:00 H and 16:00 H each day. Application was performed for 30 days, at about 5 mg/cm^2 each. On the 31st day, skin was taken from the back of each animal. Subcutaneous fat tissue was removed and collagen and lipid peroxide contents were measured with […]. 3) Result
(§3) SOD (superoxide dismutase) and GSH-Px (total glutathione peroxidase) are important antioxidative enzymes in living organisms. […]
(§4) MDA was detected using thiobarboturic acid. GSH-Px and SOD contents were measured by DNTB (5,5′-dithio-bis-2-nitrobenzoic acid) and nitrate reduction methods, respectively. […]

[2] = tested on: fibroblasts; assay: Prevention against skin cell death and aging (X-Gal staining, flow cytometer), fibroblasts; assay type: cell-based, mouse
Method: (§5) Skin tissue was taken from a red skin mouse 3 days or less old. Hypodermic tissue was removed and the skin was treated with 0.25% trypsin for 12 hours. The skin was separated into the epidermis and the dermis. The epidermis was cultured to 75% confluence in an epidermis culture medium (K-SFM). The dermis was further treated with trypsin at 37° C. for 2 hours. Fibroblasts were taken from the dermis and cultured to 75% confluence in a DMEM culture medium containing 10% serum. Cell growth and division status was confirmed by specifically staining cell DNA. β-Gal is a material for specifically marking aged skin cells. Young cells and cells in the resting phase are left intact and only aged cells are specifically stained. Cultured keratinocytes and fibroblasts were treated with a minimum amount of X-Gal, respectively, and stained at 37 for 24 hours. Aged skin cells were stained to deep blue in 2-4 hours and gave the best result in 12-16 hours (see Proc. Natl. Acad. Sci. USA, 1995, 92: 9363-7). Then, stained cells (aged cells), living cells and dead cells were counted with a flow cytometer. In Table 4, “blank” refers to the control group containing no cells.

[3] = tested on: guinea pig back skin; assay: Guinea pig back skin application for 30 days: appearance, histology, collagen (HYP) content; assay type: in vivo; settings: 3 (w/v)% sample; for Increase of collagenous fiber bundles (%) / Increase of collagen content in dermis (%): about 5 mg/cm^2 twice a day; for Increase of collagen content in dermis (%): HYP content
Method: as §1, §2
Back skin tissue was impregnated with paraffin and stained with HE (hematoxylin-eosin). Change of the skin tissue was observed. Skin collagen content was determined by adding 6 N hydrochloric acid to skin and measuring the HYP (hydroxyproline) content according to the chloramine-T oxidation method.

[4] = tested on: fibroblasts; assay: Effect on fibroblast cell activity (MTT analysis); assay type: cell-based, mouse; settings: non-treated = 0
Method: Skin tissue was taken from a red skin mouse 3 days or less old. Hypodermic tissue was removed and the skin was treated with 0.25% trypsin for 12 hours. The skin was separated into the epidermis and the dermis. The epidermis was cultured to 75% confluence in an epidermis culture medium (K-SFM). The dermis was further treated with trypsin at 37° C. for 2 hours. Fibroblasts were taken from the dermis and cultured to 75% confluence in a DMEM culture medium containing 10% serum. Paeoniflorin prepared in Preparation Example 1 was dissolved in the cultured keratinocytes and fibroblasts and treated to 0.0004 M. Cell count was measured by MTT [3-(4,5-dimethylthiazol-2-yl)-2,5-diphenyltetrazolium bromide)] analysis to determine cell activity. A non-treated group and a group treated with 0.002 M vitamin C were tested as control groups.

[5] = tested on: hairless mice; assay: Prevention of wrinkles caused by UV; assay type: in vivo; settings: 0.2% in 1,3-butylene glycol; UV 2MED, 12 weeks, three days a week
Method: Prevention effect of wrinkles caused by UV of paeoniflorin prepared in Preparation Example 1 was evaluated as follows using hairless mice. UV was irradiated to hairless mice with a solar stimulator at 2MED (minimum erythema dose). Irradiation was performed for 12 weeks, three days a week. Of the total of 10 mice, 0.2% paeoniflorin dissolved in 1,3-butylene glycol was applied to the sample treatment group and only 1,3-butylene glycol was applied to the control group. Wrinkles of each group were compared 12 weeks later.

[6] = tested on: normal human keratinocytes; assay: Prevention of DNA impairment caused by UV (electrophoresis tail moment) in cultured keratinocytes; assay type: cell-based; settings: for Average tail moment (n = 50) / Prevention effect (%): 12 hours, then 60 mJ UVB
Method: Prevention effect of DNA impairment caused by UV of paeoniflorin prepared in Preparation Example 1 was determined for normal human skin keratinocytes.
Cultured normal human keratinocytes were treated with paeoniflorin of concentrations thereof for 12 hours. The culture medium was removed and the cells were washed with PBS. 60 mJ UVB was irradiated and DNA impairment of the cells was checked. If there is DNA strand breakage inside the cell nucleus, an extended tail is shown toward the positive electrode during electrophoresis. Thus, impairment of DNA can be easily detected by electrophoresis. The average of tail moment of 50 randomly selected cells was used as a control value. The tail moment of paeoniflorin-treated cells was averaged. The control value and the resultant test value were put in Equation 2 below to calculate paeoniflorin's prevention effect of DNA impairment caused by UV.
Prevention effect (%)=(Control value−Test value)/(Control value)×100 [Equation 2]

[7] = tested on: SOD (superoxide dismutase); assay: Guinea pig back skin application for 30 days: SOD (nitrate reduction method); assay type: in vivo; settings: 3 (w/v)% sample, Content by Equation 1 relative to blank group
Method: as §1, §2, §3, §4

[8] = tested on: Keratinocytes; assay: Prevention against skin cell death and aging (X-Gal staining, flow cytometer), keratinocytes; assay type: cell-based, mouse
Method: as §5

[9] = tested on: MDA (malondialdehyde); assay: Guinea pig back skin application for 30 days: lipid peroxide MDA (thiobarboturic acid); assay type: in vivo; settings: 3 (w/v)% sample, Content by Equation 1 relative to blank group
Method: as §1, §2, §3, §4

[10] = tested on: hairless mice; assay: Prevention of DNA impairment caused by UV (in vivo); settings: after 6 days 1 J UVB
Method: Prevention effect (%)=(Control value−Test value)/(Control value)×100 [Equation 2] Paeoniflorin dissolved in 80% ethanol was applied to the back of hairless mice. After 6 days, 1 J UVB was irradiated. Skin cells were taken and DNA impairment was measured.

[11] = 0.01% in 80% ethanol applied to the back
[12] = 0.1% in 80% ethanol applied to the back
[13] = 1% in 80% ethanol applied to the back

Molecule: C[C@@]12C[C@@]3(O)O[C@@H](O1)[C@]1(COC(=O)c4ccccc4)[C@H]3C[C@@]12O[C@@H]1O[C@H](CO)[C@@H](O)[C@H](O)[C@H]1O [Paeoniflorin]
- GSH-Px [1]: 29.51*
- Cell aging rate ([2]; 0.0005 M): 17.2%
- Cell death rate ([2]; 0.0005 M): 11.5%
- Cell growth rate ([2]; 0.0005 M): 18.4%
- Cell organelles observed in the dermis [3]: Expansion of RER (rough endoplasmie reticulum) and increase of mitochondria
- Histological observation (HE): change in the dermis [3]: an increase in collagenous fiber bundles was observed in the dermis
- Histological observation (HE): change in the epidermis [3]: no significant change in the epidermis
- Observation with the naked eyes of treated skin [3]: significant apparent improvement, such as soft and shiny skin
- Increase of collagenous fiber bundles (%) [3]: 18.1* %
- Increase of collagen content in dermis (%) [3]: 35.92* %
- Increase in cell activity (%) ([4]; 0.0004 M): 25.7%
- Not improved (number of mice, wrinkles compared to the control group) [5]: 0
- Significantly improved (number of mice, wrinkles compared to the control group) [5]: 6
- Slightly improved (number of mice, wrinkles compared to the control group) [5]: 4
- Average tail moment (n = 50) ([6]; 0.0001%): 7.951 ± 1.887
- Prevention effect (%) ([6]; 0.0001%): 16.9%
- Average tail moment (n = 50) ([6]; 0.001%): 7.710 ± 2.161
- Prevention effect (%) ([6]; 0.001%): 19.4%
- Average tail moment (n = 50) ([6]; 0.01%): 7.409 ± 2.395
- Prevention effect (%) ([6]; 0.01%): 22.6%
- Average tail moment (n = 50) ([6]; 0.1%): 7.320 ± 2.534
- Prevention effect (%) ([6]; 0.1%): 23.5%
- DNA impairment prevention effect ([6]; treatment concentration range of 0.0001% to 0.1%): at least 16.9%
- SOD [7]: 8.58*
- Cell aging rate ([8]; 0.0005 M): 24.7%
- Cell death rate ([8]; 0.0005 M): 12.3%
- Cell growth rate ([8]; 0.0005 M): 55.3%
- MDA [9]: 29.57*
- Average tail moment (n = 50) [10, 11]: 14.968 ± 5.883
- Prevention effect (%) [10, 11]: 40.9%
- Average tail moment (n = 50) [10, 12]: 18.930 ± 5.969
- Prevention effect (%) [10, 12]: 25.3%
- Average tail moment (n = 50) [10, 13]: 18.363 ± 5.463
- Prevention effect (%) [10, 13]: 27.5%

Molecule: O=C1O[C@H]([C@@H](O)CO)C(O)=C1O [vitamin C, reference compound]
- Increase in cell activity (%) ([4]; 0.002 M): 14.4%

Molecule: Vitamin E [reference compound]
- GSH-Px [1]: 28.60*
- Cell aging rate ([2]; 0.0004 M): 22.8%
- Cell death rate ([2]; 0.0004 M): 15.4%
- Cell growth rate ([2]; 0.0004 M): 9.96%
- Increase of collagenous fiber bundles (%) [3]: 10.4* %
- Increase of collagen content in dermis (%) [3]: 29.86* %
- SOD [7]: 7.17*
- Cell aging rate ([8]; 0.0004 M): 20.1%
- Cell death rate ([8]; 0.0004 M): 10.5%
- Cell growth rate ([8]; 0.0004 M): 23.3%
- MDA [9]: 26.71*
